“And” between values parts separate entries of the source, which are not always exact repeats. Equal entries are not always repeated. Where two headings read alike, the source gives them in different places.
Columns and labels:
ODC = conditions: read-out: Ki for ODC inhibition; cited from earlier work
HEK-293 cells [1] = assay: rescue from DFMO-induced growth inhibition; type: cell-based; conditions: 25 μM compound, 2.5 mM DFMO, 6 days
Protocol: FIG. 5 gives a comparison of the ability of antizyme frameshifters (25 μM) to rescue cells from 2.5 mM DFMO-induced growth inhibition compared to 25 μM spermidine (SPD) in a 6-day assay in HEK-293 cells. The rescue coefficient represents the ratio of cell growth, as measured by O.D., of the test compound with 2.5 mM DFMO versus 2.5 mM DFMO alone.
HEK-293 cells are plated in 96-well assay plates at 1,000 cells per well in 100 μL of medium (DMEM supplemented with 10% fetal bovine serum (Gibco), 1% penicillin, streptomycin and L-glutamine). The cells are incubated overnight at 37° C. in an atmosphere of 5% CO2. Compounds are added the next day to a final concentration of 25 μM along with 1 mM aminoguanidine (inhibits serum amine oxidase) and 2.5 mM DFMO in a final volume of 200 μL medium. The positive control contained 25 μM spermidine. The cells are allowed to incubate for 6 days before cell growth is measured by MTS/PMS dye assay (Cell Titer 96 Aqueous Non-Radioactive Cell Proliferation Assay, Promega). The rescue coefficients in FIG. 1 and FIG. 5 are expressed as the ratio of the O.D. ((compound+2.5 mM DFMO)/O.D. (2.5 mM DFMO alone)). Therefore, DFMO alone has a value of one. […] If the value is less than one, then the compound is growth inhibitory. If the value is 0, the compound is cytotoxic.

[2] = test system: antizyme frameshifting (inducible 0 to +1 AZ1 construct) in HEK-293 cells; assay: dual luciferase reporter assay for antizyme frameshifting; type: cell-based; conditions: for frameshift-rescue factor (FRF): % RF multiplied by inverse of rescue coefficient, HEK-293; for frameshift-rescue factor (FRF) / induction of antizyme frameshifting, comparison in words: 25 μM; for EC50: HEK-293 cells grown in 2.5 mM DFMO, 50% of maximum percent frameshifting (plateau, FIG. 3), read-out: EC50 for induction of frameshifting; for induction of antizyme frameshifting, comparison in words: HEK-293 (FIG. 1, FIG. 2)
Protocol: Frameshifting can be detected using a dual luciferase reporter system that measures the efficiency of antizyme translational frameshifting (Grentzmann, G. et. al., RNA 4:479–486 (1998); Howard, M. et. al., Genes to Cells 6:931–941 (2001)). Frameshifting efficiency is determined by comparing the ratio of firefly luciferase to renilla luciferase activity in cells transfected in parallel using a control vector containing a constitutive +1 frameshift (AZ-IF) that measures the in-frame translation efficiency and a vector containing the inducible 0 to +1 frameshift (AZ1) construct. In these constructs, the renilla luciferase gene is upstream of the firefly luciferase gene which are separated by a short cloning sequence containing the portions of antizyme 1 and 2 known to contain the mRNA signals for polyamine stimulated frameshifting. Using a 96-well format, this assay system gives a quantitative measure of the efficiency of the polyamines, polyamine analogs and other compounds to induce frameshifting in a cell-based bioassay. Cells must be pretreated with α-difluoromethylornithine (DFMO), an irreversible inhibitor of ODC, prior to screening to decrease the basal antizyme frameshifting levels and increase the sensitivity to polyamine or compound-mediated stimulation of antizyme frameshifting.
FIG. 1 is a tabular representation of a large number of polyamines A-S (25 μM) that were tested for their ability to induce antizyme frameshifting using the dual luciferase reporter assay. The percent relative frameshifting value (% RF) gives a comparison of the ability of a compound to induce frameshifting compared to 25 μM spermidine. The % RF was calculated as follows. The background percent frameshifting activity determined from the 2.5 mM DFMO negative control was subtracted from the percent frameshifting activity for all compounds including the spermidine control. The background corrected frameshifting activity of each compound was then divided by the background corrected frameshifting activity induced by 25 μM spermidine and multiplied by 100. The compounds were also evaluated for their ability to rescue cells from DFMO-induced growth inhibition by determining their rescue coefficient. The rescue coefficient represents the ratio of the cell growth, as measured by O.D., in the presence of the test compound with 2.5 mM DFMO to the growth in the presence of 2.5 mM DFMO alone. The frameshift-rescue factor (FRF) is a useful factor to compare the effectiveness of the various antizyme frameshifters by taking into account their potency for inducing frameshifting and ability to rescue cells from DFMO-induced growth inhibition. The FRF was calculated by multipling the % RF value by the inverse of the rescue coefficient.
Values represent percent frameshifting following transient transfection of an AZ1-IF control and the inducible 0 to +1 AZ1 plasmid construct into HEK-293 cells grown in the presence of 2.5 mM DFMO. The compounds were added to the cells after transfection and incubated overnight before assaying the next day. Each value represents triplicate measurements.
A series of compounds are screened for their ability to induce frameshifting using the dual luciferase reporter assay. HEK-293 cells are plated in white sided, clear-bottomed 96-well assay plates at 15,000 cells per well in 100 μL of medium (DMEM supplemented with 10% fetal bovine serum (Gibco), 1% penicillin, streptomycin and L-glutamine) containing 2.5 mM DFMO. The cells are incubated for 2-days at 37° C. in an atmosphere of 5% CO2. The medium is removed and the cells are then transfected with lipofectamine reagent (LifeTechnologies) using serum free DMEM. All cells are transfected overnight with 100 ng of the appropriate plasmid DNA and 0.3 μL lipofectamine in 50 μL of serum free DMEM containing 2.5 mM DFMO. The next day, 40 μL of medium is added per well containing 3.1 mM DFMO, 2.5 mM aminoguanidine and 25% FBS. […]

antizyme frameshifting = conditions: cited from earlier work
MDA-MB-231 cells = assay: growth inhibition, MDA-MB-231; type: cell-based; conditions: Homo sapiens; MDA-MB-231 cells (data not shown)
Protocol: (§1) Cells are plated in 96-well plates such that they would be in log growth for the duration of the assay. The day after plating, the polyamine analogs are added to the cells, and growth, if any, permitted to continue for six days in the presence of 1 mM AG and 1 μM SPD when appropriate. At the end of six days, cell growth is measured by MTS/PMS dye assay (Cell Titer 96 Aqueous Non-Radioactive Cell Proliferation Assay; Promega, Madison, Wis.). IC50 refers to the concentration of the polyamine analog that results in 50% of maximum cell growth inhibition.

[3] = test system: mouse kidney proximal tubule (MCT) cell; conditions: MCT cells; cited from earlier work
HEK-293 cells [4] = assay: cells; type: cell-based; conditions: for IC50: read-out: IC50 growth inhibition
Protocol: Cell number was determined by MTS/PMS assay from triplicate wells.
as §1

prostate PC-3 cells = assay: growth inhibition, PC-3; type: cell-based; conditions: Homo sapiens; prostate PC-3 cells (data not shown)
Protocol: as §1

HEK-293 cells [5] = assay: depletion of intracellular polyamine levels (HPLC) and cell growth; type: cell-based
Protocol: FIG. 6 is a graph showing the effect of a 6-day incubation of compound A on HEK-293 cellular polyamine levels and cell growth. All flasks received 1 mM aminoguanidine. Cells were washed, counted, lysed in perchloric acid, dansylated and polyamine levels determined by HPLC. Each value represents the average of triplicate values with the error bars representing standard deviation.
FIG. 7 illustrates the effect of extracellular compound A on the intracellular concentration of compound A in HEK-293 cells as determined by HPLC. Cells were prepared as in FIG. 6. Peak area was normalized by dividing the peak area of the compound divided by the peak area of the internal standard, diaminoheptane. Values represent at least triplicate measurements with the error bars representing standard deviation.
Compound A is further evaluated to determine if it depletes intracellular polyamine levels in HEK-293 cells in a dose-dependent fashion (FIG. 6). HEK-293 cells are plated in 75 cm^2 flasks at 300,000 cells/mL to insure they would be in log growth for the duration of the experiment. After overnight incubation at 37° C. in an atmosphere of 5% CO2, compound A is added along with 1 mM aminoguanidine. The flasks are then incubated for 6 days at 37° C. in an atmosphere of 5% CO2. The cells are harvested by washing twice with ice-cold 1×PBS, trypsinized, counted, and lysed in 0.4 N perchloric acid. Diaminoheptane is used in all dansylation reactions as an internal standard. Peak area is normalized by dividing the peak area of the compound divided by the peak area of the internal standard. The HPLC method for the fluorometric detection of polyamines from the cell extracts is based on the procedure by Kabra (Kabra, P. M. et. al. J. Chromatogr. 380:19–32 (1986)).

Which Ki (ODC) does the source give for NC/C=C/CN [1,4-diamino-trans-2-butene] here?
The Ki was 2 µM.

Which Ki (ODC) does the source give for Nc1ccc(N)cc1 [1,4-phenylenediamine] here?
The Ki was 46 µM.

For NCCCN(CCCN)Cc1ccc(CN(CCCN)CCCN)cc1 [Compound S], which “ability to rescue cells from DFMO-induced growth inhibition” value (HEK-293 cells [1]) is on record?
The value was “no ability to rescue”.

And the “percent relative frameshifting (% RF)” value ([2]; 25 μM compound, relative to 25 μM spermidine)?
The value was 100%.

With N=C(N)NCCCCN [agmatine] as the compound, how does the “concentration of maximum frameshifting efficiency” value (antizyme frameshifting) read?
The value was 4 mM.

And the “ability to rescue cells from DFMO-induced growth inhibition” value (HEK-293 cells [1])?
Its value is “somewhat better than either A or B in rescuing cells”.

What about the IC50 (MDA-MB-231 cells) of the same compound?
The IC50 was roughly 2000 µM.

And the “concentration of maximum growth inhibition” value [3]?
The value was no more than 1 mM.

What about the IC50 (HEK-293 cells [4]; Homo sapiens, HEK293, HEK-293 cells (data not shown)) of the same compound?
The IC50 was roughly 210 µM.

What about the “frameshift-rescue factor (FRF)” value [2] of the same compound?
Its value is 17.

What about the IC50 (prostate PC-3 cells) of the same compound?
Its IC50 is roughly 5000 µM.

With NCCCCN [putrescine, reference compound] as the compound, how does the EC50 ([2]; Homo sapiens, HEK293) read?
Its EC50 is 0.95 µM.

With NCCCCNCCCN [spermidine, reference compound] as the compound, how does the EC50 ([2]; Homo sapiens, HEK293) read?
Its EC50 is 0.56 µM.

For NCCCNCCCCNCCCN [spermine, reference compound], which EC50 ([2]; Homo sapiens, HEK293) is on record?
The EC50 was 0.68 µM.

Which “ability to rescue cells from DFMO-induced growth inhibition” value (HEK-293 cells [1]) does the source give for “N-(3-aminopropyl)-xylylenediamin [Compound A]” here?
Its value is “neither compound A nor B significantly rescue cells”.

And the IC50 (HEK-293 cells [4]; HEK-293, 6 days, 1 mM aminoguanidine)?
The IC50 was ~60 µM and 60 µM.

What about the “compound A concentrations at which 1 μM spermidine rescued cells from growth inhibition” value (HEK-293 cells [4]; HEK-293, 6 days, with 1 μM spermidine) of the same compound?
Its value is 3 to 100 µM.

What about the “induction of antizyme frameshifting, comparison in words” value [2] of the same compound?
Its value is “more potent than agmatine”.

What about the “frameshift-rescue factor (FRF)” value [2] of the same compound?
Its value is 120.

What about the EC50 [2] of the same compound?
The EC50 was roughly 120 µM.

And the cell growth decrease (HEK-293 cells [5]; 10 μM compound A, 6 days)?
The cell growth decrease was 32%.

What about the “spermidine levels down by” value (HEK-293 cells [5]; 10 μM compound A, 6 days) of the same compound?
The value was “about 90%”.

What about the cell growth decrease (HEK-293 cells [5]; 30 μM compound A, 6 days) of the same compound?
Its cell growth decrease is 38.5%.

And the intracellular spermidine level (HEK-293 cells [5]; 100 μM compound A, 6 days)?
The intracellular spermidine level was “non-detectable”.

What about the “spermine levels reduced by” value (HEK-293 cells [5]; 100 μM compound A, 6 days) of the same compound?
Its value is 50%.

What about the “spermine levels, of normal” value (HEK-293 cells [5]; compound A levels above 30 μM) of the same compound?
Its value is “approximately 50%”.

What about the intracellular putrescine level (HEK-293 cells [5]; lowest concentration of compound A tested, 6 days) of the same compound?
The intracellular putrescine level was “non-detectable”.

Which results are given for “N-(4-amino-1-butane-N-(3-aminopropyl-)-xylylenediamine [Compound B]”?
ability to rescue cells from DFMO-induced growth inhibition (HEK-293 cells [1]): neither compound A nor B significantly rescue cells; induction of antizyme frameshifting, comparison in words [2]: more potent than agmatine; frameshift-rescue factor (FRF) [2]: 83
